The nature of data set [1]: Pharmacokinetics of GLP-1 compound after oral gavage with delivery agent (subcutaneous control). To be noted: rat. Format: in vivo, Male Sprague Dawley rats. How it is done:
A solution of Val^8-Glu^22-GLP-1 was prepared by dissolving the GLP-1 compound in distilled water to yield a concentration of 7 mg/mL. The pH was slowly raised to 10.5 with 2 N NaOH, followed by incubation at room temperature for 30 minutes. A volume of 1 M Tris buffer, pH 8.0 was added to give a final buffer concentration 20 mM Tris, and the pH adjusted to pH 7.8 with 1 N or 5 N HCl. The solution was then filtered through a low protein binding […] syringe filter (Millex GV, Millipore) and the concentration of the GLP-1 compound was determined by UV spectroscopy. The solution was diluted to a final concentration of 5.5 mg/mL using 20 mM Tris buffer, pH 7.8. The peptide solution was then stored in 1.0 mL aliquots at −70° C. until used.
Final formulations were freshly prepared approximately 30 minutes to 1 hour prior to in vivo dosing by combining 4.5 mL of the delivery agent with 0.5 mL of the GLP-1 compound. The final formulations were dosed by oral gavage at 2 mL/kg (1.1 mg/kg GLP-1 compound, 300 mg/kg delivery agent) with to Male Sprague Dawley rats that were fasted for 12 hours prior to dosing. A subcutaneous dose of the GLP-1 compound alone was used as a control (0.011 mg/kg).

A short description of data set [2]: Stability studies of delivery agents, HPLC after three days storage. Format: physicochemical. To be noted: prepared at 150 mg/mL. How it is done: Stability studies were conducted for delivery agent numbers 9, 15, and 40. The delivery agents were freshly prepared as described above respectively to achieve the desired concentration of 150 mg/mL. The samples were divided into three 2 mL aliquots and stored at −20° C., 4° C., and ambient for three days. HPLC assay development and analyses were performed at the end of the storage period.

Data set [3] is described as follows: Mean particle size of delivery agent suspension (Coulter LS Particle Size Analyzer). Format: physicochemical. To be noted: suspension in 4% w/v Klucel. How it is done: (§1) Approximately 1.7 mL of suspending agent was added to a Type I glass vial containing 300 mg of delivery agent number 9. The preparation was cooled on ice for 3 minutes, followed by probe sonication on ice for 30 minutes using a Misonix Sonicator® Ultrasonic Processor XL ( 3/16th inch microtip). […] The formulation was then diluted to 150 mg/mL with the suspending agent.

A short description of data set [4]: Solubility of delivery agents at desired formulation concentration. Format: physicochemical. As to conditions: for solubility at the desired concentration of 150 mg/mL: 0.1 N NaOH base, further base to pH 11.5, and cosolvents. How it is done:
Approximately 600 mg of delivery agent number 15 was weighed into Type I glass vials to which 3 mL of base (0.1 N NaOH, pH 12.7) was added to achieve a final concentration of 200 mg/mL. The pH was adjusted to 7.1 and the concentration was estimated to be 171 mg/mL. Delivery agent number 15 was then diluted to 150 mg/mL with Milli-Q® water.
Delivery agents number 40 and 9 were insoluble at the desired concentration of 150 mg/mL when followed example 1. […] Cosolvents tested included ethanol, N-methylpyrrolidone, N,N-dimethylacetamide, N,N-dimethylformamide, glycofurol, ethoxydiol, propylene glycol, polyethyleneglycol 300, and polyvinylpyrrolidone.
However, for delivery agent number 40, 150 mg was weighed into a Type I vial, to which 1 mL of Milli-Q® water was added, and the pH adjusted with 10 N NaOH.
as §1

Setting [5] is: Peptide A 1.1 mg/kg + delivery agent 300 mg/kg, oral gavage, Tris solution.
[6] abbreviates: Peptide A 1.1 mg/kg + delivery agent 300 mg/kg, oral gavage, Tris suspension.
Setting [7] is: stored at ambient for three days.
[8] abbreviates: stored at −20° C. for three days.
The mark [9] stands for this setting: Peptide A 1.1 mg/kg + delivery agent 300 mg/kg, oral gavage, Klucel suspension.
Setting [10] is: Val8-Glu22-GLP-1 1.1 mg/kg + delivery agent 300 mg/kg, oral gavage, solution.
The mark [11] stands for this setting: Peptide A alone, no delivery agent, Tris solution, subcutaneous control 0.011 mg/kg.

Where two headings read alike, the source gives them in different places. No end group written: not given here.

In the case of `O=C(N[C@@H](Cc1ccccc1)C(=O)O)C1CCCCC1` (stereo in doubt) [Delivery agent 46], the AUC in data set [1] (Peptide A 1.1 mg/kg + delivery agent 300 mg/kg, oral gavage, Klucel solution) was 4789.7 pg·min/mL; in data set [1] (setting [5]), 19304.1 pg·min/mL. For the compound `O=C(O)CCCCCCCNC(=O)c1ccccc1` [Delivery agent 2], in data set [1] (setting [5]), the AUC was found to be 7202 pg·min/mL. Consider `CN(CCCCCCCC(=O)O)C(=O)c1ccccc1` [Delivery agent 3], for which the area under the curve (AUC) in data set [1] (setting [5]) turned out to be 237422.3 pg·min/mL.

For `O=C(O)CCCCCCCNC(=O)c1ccccc1O` [Delivery agent 5], the AUC in data set [1] (setting [6]) was 40984 pg·min/mL.

For `O=C(O)CCCCCCCCCNC(=O)c1ccccc1O` [Delivery agent 6], in data set [1] (setting [6]), the AUC was 37926 pg·min/mL. For the compound `CN(C)CCCCCCNC(=O)c1ccccc1O` [Delivery agent 7], the AUC in data set [1] (setting [5]) was 204611 pg·min/mL. Still for that read-out and setting: the same measure for `CN(CCCCCCCC(=O)O)C(=O)c1ccccc1O` [Delivery agent 8]: 173548.6 pg·min/mL. Turning to `O=C(O)CCCCCCCNC(=O)c1cc(Cl)ccc1O` [Delivery agent 9], the figures for the “Stability Data: delivery agent concentration” value (shortened to “Stability Data”) in data set [2] (stored at 4° C. for three days), in data set [2] (setting [7]) and in data set [2] (setting [8]) were 148.6 mg/mL, 146.0 mg/mL and 153.2 mg/mL, respectively. In addition, in data set [3], the “mean particle size before sonication” value is listed as 48 μm. Besides, in data set [3] (probe sonication 30 minutes, pH 7.98), the “mean particle size after sonication” value worked out at 8 μm. Besides, the AUC in data set [1] (Val8-Glu22-GLP-1 1.1 mg/kg + delivery agent 300 mg/kg, oral gavage, Klucel suspension) is 28144 ± 38576 pg·min/mL. In addition, in data set [4], the “solubility at the desired concentration of 150 mg/mL” value is recorded as “insoluble”. Moreover, the aqueous solubility result in data set [4] (aqueous) is given as “aqueous insolubility”. With `Cc1cccc(C(=O)NCCCCCCCC(=O)[O-])c1[O-].[Na+].[Na+]` [Delivery agent 12], the AUC in data set [1] (setting [9]) was found to be 35239 pg·min/mL. As to `COc1cc(O)ccc1C(=O)NCCCCCCCC(=O)O` [Delivery agent 14], the AUC in data set [1] (setting [5]) was found to be 160066.6 pg·min/mL. On to `COc1ccc(C(=O)NCCCCCCCC(=O)[O-])c([O-])c1.[Na+].[Na+]` [Delivery agent 15], for which the figures for the “Stability Data” value in data set [2] (stored at 4° C. for three days), in data set [2] (setting [7]) and in data set [2] (setting [8]) were 138.2 mg/mL, 137.4 mg/mL and 135.5 mg/mL, respectively. The AUC was 254291 pg·min/mL in data set [1] (setting [5]); 82656 pg·min/mL in data set [1] (Peptide B + delivery agent, oral gavage, Tris solution); 254291 ± 129387 pg·min/mL in data set [1] (setting [10]). `COc1ccc(C(=O)NCCCCCCCN(C)C)c(O)c1` [Delivery agent 16]: the AUC in data set [1] (setting [9]) stood at 19972 pg·min/mL. Turning to `CN(C(=O)c1ccccc1)c1ccc(CCCC(=O)[O-])cc1.[Na+]` [Delivery agent 19], the AUC in data set [1] (setting [6]) came out at 290106.4 pg·min/mL. On the same count and under the same terms, the same measure for `O=C(N[C@@H](Cc1ccccc1)C(=O)O)c1ccccc1O` [Delivery agent 20]: 21948 pg·min/mL; for `O=C([O-])Cc1ccc(NC(=O)c2ccccc2O)cc1.[Na+]` [Delivery agent 21]: 57166 pg·min/mL. On to `COc1ccccc1C(=O)Nc1ccc(CCCC(=O)O)cc1` [Delivery agent 23], for which the AUC in data set [1] (setting [5]) worked out at 15747 pg·min/mL. Still for that read-out and setting: the same measure for `CN(C)c1ccc(C(=O)Nc2ccc(CCCC(=O)O)cc2)cc1` [Delivery agent 24]: 21559.2 pg·min/mL; for `O=C(O)CCCCCCCOc1ccccc1O` [Delivery agent 26]: 113480.1 pg·min/mL. Turning to `O=C(O)CCCCCCCOc1cccc(O)c1` [Delivery agent 27], in data set [1] (setting [9]), the AUC turned out to be 299137.2 pg·min/mL.

Consider `CC(=O)c1ccccc1OCCCCCCCC(=O)O` [Delivery agent 28], for which the AUC in data set [1] (setting [5]) stood at 59543 pg·min/mL; in data set [1] (setting [6]) it was 13116 pg·min/mL. Turning to `CC(=O)c1ccccc1OCCCCCCCC(=O)[O-].[Na+]` [Delivery agent 29], the AUC in data set [1] (setting [5]) stood at 62303 pg·min/mL.

For the compound `CC(=O)c1ccccc1OCc1ccc(C(=O)O)cc1` [Delivery agent 30], the AUC in data set [1] (setting [5]) worked out at 35259 pg·min/mL. The same measure, in the same setting: the value for `CNC(=O)c1ccccc1OCCCCCCCC(=O)O` [Delivery agent 31] was 30164 pg·min/mL. Turning to `O=C(O)CCCCCCCNC(=O)c1ccccn1` [Delivery agent 32], in data set [1] (setting [6]), the AUC amounted to 130175.6 pg·min/mL. Turning to `O=C(O)CCCCCCCNC(=O)c1ccncc1` [Delivery agent 34], the exposure (AUC) in data set [1] (setting [6]) was found to be 6964.2 pg·min/mL. `O=C(O)CCCCCCCNS(=O)(=O)c1ccccc1` [Delivery agent 36]: in data set [1] (setting [5]), the exposure (AUC) is 42036 pg·min/mL. The same measure, in the same setting: the value for `O=C(O)[C@@H](NS(=O)(=O)c1ccccc1)c1ccccc1` [Delivery agent 38] was 5669 pg·min/mL; that for `O=C(O)c1ccc(NS(=O)(=O)c2ccccc2)cc1` [Delivery agent 39] was 6087 pg·min/mL. As for `O=C(O)CCCc1ccc(NS(=O)(=O)c2ccccc2)cc1` [Delivery agent 40], the “Stability Data” value is on record as 135.1 mg/mL in data set [2] (stored at 4° C. for three days), 135.3 mg/mL in data set [2] (setting [7]) and 134.0 mg/mL in data set [2] (setting [8]). Moreover, the AUC is 94215 pg·min/mL in data set [1] (setting [5]) and 94215 ± 66732 pg·min/mL in data set [1] (setting [10]). For the same compound, the “solubility at the desired concentration of 150 mg/mL” value in data set [4] is on record as “insoluble”. In data set [4] (Milli-Q water, pH adjusted with 10 N NaOH, pH 8.22), the solution concentration achieved worked out at 150 mg/mL. Regarding `CN(c1ccc(CCCC(=O)O)cc1)S(=O)(=O)c1ccccc1` [Delivery agent 41], the area under the curve (AUC) in data set [1] (setting [5]) was 21679.1 pg·min/mL. Turning to `O=C(O)CCCCCCCNC(=O)C1CCCCC1` [Delivery agent 43], in data set [1] (setting [6]), the AUC was 7281 pg·min/mL. As for `O=C(O)CCCc1ccc(NC(=O)C2CCCCC2)cc1` [Delivery agent 44], the AUC in data set [1] (setting [5]) was found to be 55671 pg·min/mL. On the same count and under the same terms, the value for `CC(C)C[C@H](NC(=O)C1CCCCC1)C(=O)O` [Delivery agent 45] was 13468.0 pg·min/mL; that for `CC(C)[C@H](NC(=O)C1CCCCC1)C(=O)O` [Delivery agent 48] was 6068.5 pg·min/mL. Still for that read-out and setting: the value for `O=C(O)CCCCCCCNC(=O)/C=C/c1ccccc1F` [Delivery agent 51] was 10838 pg·min/mL. With `O=C(O)CCCCCCc1nnc(-c2ccccc2)o1` [Delivery agent 53], in data set [1] (setting [6]), the AUC worked out at 337360 pg·min/mL. Take `O=C(O)CCCCc1nnc(-c2ccccc2O)o1` [Delivery agent 54]: the AUC was 218240.8 pg·min/mL in data set [1] (setting [9]) and 684087.3 pg·min/mL in data set [1] (setting [6]). Take `O=C(N[C@H](C(=O)O)c1ccccc1)c1ccccc1` [Delivery agent 55]: the AUC in data set [1] (setting [5]) was determined as 20177.7 pg·min/mL.

On to `O=C(N[C@@H](Cc1ccccc1)C(=O)O)c1ccccc1` [Delivery agent 56], for which the AUC in data set [1] (setting [5]) was found to be 48324.4 pg·min/mL. For HVEGTFTSDVSSYLEEQAAKEFIAWLVKGRG [A], the AUC in data set [1] (setting [11]) is 93635 pg·min/mL; in data set [1] (male, Sprague Dawley, in vivo, sc, GLP-1 compound alone, solution, subcutaneous control 0.011 mg/kg, read-out: AUC (converted)), 93600 pg·min/mL. Also, the Cmax in data set [1] (setting [11]) worked out at 3.781 ng/mL; in data set [1] (male, Sprague Dawley, in vivo, sc, GLP-1 compound alone, solution, subcutaneous control 0.011 mg/kg, read-out: Cmax) it was 3.78 ± 1.1 ng/mL. Moreover, the Tmax was 10 ± 0 min in data set [1] (setting [11]) and 10 min in data set [1] (male, Sprague Dawley, in vivo, sc, GLP-1 compound alone, solution, subcutaneous control 0.011 mg/kg, read-out: Tmax (converted)).

What is called AUC is concentration integrated over time. For orientation: Cmax means the maximum level reached in the sampled fluid or tissue. One may read the Tmax as the time at which the peak concentration occurs.
